Experimental data from paper PMC4561207 (Child's nervous system : ChNS : official journal of the …, 2015).
“Also recorded” adds a separate entry of the source.

Assay: Toxicities attributed to Cediranib
Format: in vivo, human

For `COc1cc2c(Oc3ccc4[nH]c(C)cc4c3F)ncnc2cc1OCCCN1CCCC1` [cediranib, Cediranib], the “Eye disorders - Other, specify, events (patients)” value (grade 3 TOX) was 1(1), the “Fatigue, events (patients)” value (grade 3 TOX) was 2(2) and the “Headache, events (patients)” value (grade 3 TOX) was 2(2). The “Hydrocephalus, events (patients)” value (grade 3 TOX) was 1(1), the “Hypertension, events (patients)” value (grade 3 TOX) was 10(10) and the “Hypertriglyceridemia, events (patients)” value (grade 3 TOX) was 1(1). The “Hypokalemia, events (patients)” value (grade 3 TOX) was 2(1), the “Hyponatremia, events (patients)” value (grade 3 TOX) was 3(3) and the “Lipase increased, events (patients)” value (grade 3 TOX) was 1(1). The “Lymphocyte count decreased, events (patients)” value (from here on “Lymphocyte count decreased”) (grade 3 TOX) was 5(3), the “Nausea, events (patients)” value (grade 3 TOX) was 1(1) and the “Neutrophil count decreased, events (patients)” value (grade 3 TOX) was 2(2). For the same molecule, the “Palmar-plantar erythrodysesthesia syndrome, events (patients)” value (grade 3 TOX) was 3(3), the “Proteinuria, events (patients)” value (grade 3 TOX) was 3(3) and the “Reversible posterior leukoencephalopathy syndrome, events (patients)” value (grade 3 TOX) was 1(1). The “Vomiting, events (patients)” value (grade 3 TOX) was 1(1), the “Weight loss, events (patients)” value (grade 3 TOX) was 1(1) and the “White blood cell decreased, events (patients)” value (grade 3 TOX) was 1(1). The “Alanine aminotransferase increased, events (patients)” value (grade 4 TOX) was 1(1), the “Aspartate aminotransferase increased, events (patients)” value (grade 4 TOX) was 1(1) and the “Hypothyroidism, events (patients)” value (grade 4 TOX) was 1(1). For the same molecule, the “Lymphocyte count decreased” value (grade 4 TOX) was 1(1), the “Nervous system disorders - Other, specify, events (patients)” value (grade 4 TOX) was 1(1) and the “Papilledema, events (patients)” value (grade 4 TOX) was 1(1). For the same molecule, the “fatigue, number of patients” value (human, in vivo) was 16, the left ventricular dysfunction (human, in vivo) was “No left ventricular dysfunction was identified in any of the patients; also recorded: No dose-limiting decreases in left ventricular function were observed” and the “palmar-plantar erythrodysesthesia syndrome, number of patients” value (human, in vivo) was 7. The “hypertension, percentage of patients” value (of 48 eligible patients) was 77%, the “hypothyroidism, number of patients” value (of 48 eligible patients) was 15 and the “hypothyroidism, percentage of patients” value (of 48 eligible patients) was 31%. The “proteinuria, number of patients” value (of 48 eligible patients) was 20, the “proteinuria, percentage of patients” value (of 48 eligible patients) was 42% and the “hypertension, number of patients” value (of 48 eligible patients, all dose levels) was 37. For the same molecule, the “diarrhea grade 3, number of patients” value (of thirty-two patients with diarrhea) was 2, the “effect on bone growth: bone-related AEs” value (short duration of drug exposure in the majority of patients) was “no bone-related AEs were identified” and the “Abdominal pain, events (patients)” value (total TOX) was 10(10). The “Acidosis, events (patients)” value (total TOX) was 1(1), the “Alanine aminotransferase increased, events (patients)” value (total TOX) was 65(28) and the “Alkaline phosphatase increased, events (patients)” value (total TOX) was 2(2). For the same molecule, the “Anal mucositis, events (patients)” value (total TOX) was 1(1), the “Anal pain, events (patients)” value (total TOX) was 1(1) and the “Anemia, events (patients)” value (total TOX) was 3(3). The “Anorexia, events (patients)” value (total TOX) was 13(10), the “Arthralgia, events (patients)” value (total TOX) was 1(1) and the “Aspartate aminotransferase increased, events (patients)” value (total TOX) was 43(21). For the same molecule, the “Back pain, events (patients)” value (total TOX) was 2(2), the “Blood bilirubin increased, events (patients)” value (total TOX) was 13(7) and the “Blurred vision, events (patients)” value (total TOX) was 1(1). For the same molecule, the “Bone pain, events (patients)” value (total TOX) was 2(1), the “Capillary leak syndrome, events (patients)” value (total TOX) was 1(1) and the “Cardiac troponin I increased, events (patients)” value (total TOX) was 1(1). The “Chest wall pain, events (patients)” value (total TOX) was 1(1), the “Cholesterol high, events (patients)” value (total TOX) was 1(1) and the “Chronic kidney disease, events (patients)” value (total TOX) was 1(1). The “Confusion, events (patients)” value (total TOX) was 1(1), the “Constipation, events (patients)” value (total TOX) was 6(2) and the “Cough, events (patients)” value (total TOX) was 1(1). For the same molecule, the “Creatinine increased, events (patients)” value (total TOX) was 1(1), the “Dehydration, events (patients)” value (total TOX) was 4(4) and the “Depressed level of consciousness, events (patients)” value (total TOX) was 1(1). For the same molecule, the “Depression, events (patients)” value (total TOX) was 1(1), the “Diarrhea, events (patients)” value (total TOX) was 61(32) and the “Dizziness, events (patients)” value (total TOX) was 5(3). For the same molecule, the “Dry mouth, events (patients)” value (total TOX) was 1(1), the “Dry skin, events (patients)” value (total TOX) was 1(1) and the “Dyspepsia, events (patients)” value (total TOX) was 3(3). For the same molecule, the “Dysphasia, events (patients)” value (total TOX) was 1(1), the “Edema face, events (patients)” value (total TOX) was 1(1) and the “Edema limbs, events (patients)” value (total TOX) was 1(1). For the same molecule, the “Endocrine disorders - Other, specify, events (patients)” value (total TOX) was 1(1), the “Enterocolitis, events (patients)” value (total TOX) was 1(1) and the “Epistaxis, events (patients)” value (total TOX) was 5(4). For the same molecule, the “Eye disorders - Other, specify, events (patients)” value (total TOX) was 1(1), the “Fatigue, events (patients)” value (total TOX) was 18(16) and the “Fecal incontinence, events (patients)” value (total TOX) was 1(1). For the same molecule, the “Fever, events (patients)” value (total TOX) was 1(1), the “Flushing, events (patients)” value (total TOX) was 3(1) and the “GGT increased, events (patients)” value (total TOX) was 1(1). For the same molecule, the “Gastritis, events (patients)” value (total TOX) was 1(1), the “Gastrointestinal disorders - Other, specify, events (patients)” value (total TOX) was 2(2) and the “Headache, events (patients)” value (total TOX) was 10(7). For the same molecule, the “Hematuria, events (patients)” value (total TOX) was 5(3), the “Hemoglobin increased, events (patients)” value (total TOX) was 6(2) and the “Hoarseness, events (patients)” value (total TOX) was 1(1). The “Hydrocephalus, events (patients)” value (total TOX) was 1(1), the “Hypercalcemia, events (patients)” value (total TOX) was 3(2) and the “Hyperglycemia, events (patients)” value (total TOX) was 9(8). The “Hyperkalemia, events (patients)” value (total TOX) was 2(2), the “Hypermagnesemia, events (patients)” value (total TOX) was 7(5) and the “Hypernatremia, events (patients)” value (total TOX) was 5(4). For the same molecule, the “Hypertension, events (patients)” value (total TOX) was 57(37), the “Hyperthyroidism, events (patients)” value (total TOX) was 2(2) and the “Hypertriglyceridemia, events (patients)” value (total TOX) was 1(1). For the same molecule, the “Hypoalbuminemia, events (patients)” value (total TOX) was 26(13), the “Hypocalcemia, events (patients)” value (total TOX) was 17(8) and the “Hypoglycemia, events (patients)” value (total TOX) was 3(3). The “Hypokalemia, events (patients)” value (total TOX) was 16(12), the “Hypomagnesemia, events (patients)” value (total TOX) was 7(5) and the “Hyponatremia, events (patients)” value (total TOX) was 12(6). For the same molecule, the “Hypophosphatemia, events (patients)” value (total TOX) was 14(8), the “Hypothyroidism, events (patients)” value (total TOX) was 21(15) and the “Hypoxia, events (patients)” value (total TOX) was 1(1). For the same molecule, the “INR increased, events (patients)” value (total TOX) was 1(1), the “Intracranial hemorrhage, events (patients)” value (total TOX) was 4(4) and the “Investigations - Other, specify, events (patients)” value (total TOX) was 2(2). The “Joint effusion, events (patients)” value (total TOX) was 1(1), the “Leukoencephalopathy, events (patients)” value (total TOX) was 1(1) and the “Lipase increased, events (patients)” value (total TOX) was 2(1). For the same molecule, the “Lymphocyte count decreased” value (total TOX) was 24(10), the “Malaise, events (patients)” value (total TOX) was 2(1) and the “Mucositis oral, events (patients)” value (total TOX) was 3(3). For the same molecule, the “Myalgia, events (patients)” value (total TOX) was 2(2), the “Nausea, events (patients)” value (total TOX) was 19(10) and the “Nervous system disorders - Other, specify, events (patients)” value (total TOX) was 1(1). For the same molecule, the “Neutrophil count decreased, events (patients)” value (total TOX) was 20(10), the “Non-cardiac chest pain, events (patients)” value (total TOX) was 1(1) and the “Oral pain, events (patients)” value (total TOX) was 2(2). The “Pain in extremity, events (patients)” value (total TOX) was 4(4), the “Pain, events (patients)” value (total TOX) was 1(1) and the “Palmar-plantar erythrodysesthesia syndrome, events (patients)” value (total TOX) was 17(7). The “Papilledema, events (patients)” value (total TOX) was 1(1), the “Pericardial effusion, events (patients)” value (total TOX) was 1(1) and the “Peripheral motor neuropathy, events (patients)” value (total TOX) was 1(1). The “Platelet count decreased, events (patients)” value (total TOX) was 25(18), the “Pleural effusion, events (patients)” value (total TOX) was 1(1) and the “Proteinuria, events (patients)” value (total TOX) was 36(20). For the same molecule, the “Rash acneiform, events (patients)” value (total TOX) was 2(2), the “Rash maculo-papular, events (patients)” value (total TOX) was 5(5) and the “Rectal pain, events (patients)” value (total TOX) was 1(1). For the same molecule, the “Renal and urinary disorders - Other, specify, events (patients)” value (total TOX) was 1(1), the “Respiratory, thoracic and mediastinal disorders - Other, specify, events (patients)” value (total TOX) was 1(1) and the “Reversible posterior leukoencephalopathy syndrome, events (patients)” value (total TOX) was 2(1). For the same molecule, the “Seizure, events (patients)” value (total TOX) was 1(1), the “Serum amylase increased, events (patients)” value (total TOX) was 1(1) and the “Skin and subcutaneous tissue disorders - Other, specify, events (patients)” value (total TOX) was 1(1). For the same molecule, the “Skin ulceration, events (patients)” value (total TOX) was 1(1), the “Stomach pain, events (patients)” value (total TOX) was 2(2) and the “Urinary frequency, events (patients)” value (total TOX) was 1(1). For the same molecule, the “Urinary retention, events (patients)” value (total TOX) was 1(1), the “Vascular disorders - Other, specify, events (patients)” value (total TOX) was 2(2) and the “Voice alteration, events (patients)” value (total TOX) was 2(2). For the same molecule, the “Vomiting, events (patients)” value (total TOX) was 27(13), the “Weight loss, events (patients)” value (total TOX) was 3(3) and the “White blood cell decreased, events (patients)” value (total TOX) was 18(11).
